Results from patent publication US11977028B2, “Mechanical-bond-induced exciplex fluorescence” (Northwestern University, priority 2020, dated 2024).

What was measured:
[1] = 1H NMR titration of guests into the ^2,6AnBox^4+ cavity (binding constant); details: 1H NMR titration in CD3CN; for binding constant Ka: high concentration of salt (saturated with KPF6, 140 mM); for association constant Ka: without salt
Description: The cavity of ^2,6AnBox^4+ is able to bind an anthracene molecule in a face-to-face manner as a result of [π . . . π] interactions. The formation of anthracene⊂^2,6AnBox^4+ (An⊂^2,6AnBox^4+) was confirmed by ^1H NMR titration in CD3CN. […] Further evidence for the formation of the 1:1 complex (anthracene⊂^2,6AnBox^4+) came from XRD analysis. […] It is remarkable that, upon addition of the anthracene guest to the cavity of ^2,6AnBox^4+, a tubular superstructure is formed along the c-axis, whereas along the b-axis, face-to-face [π . . . π] stacks form between the anthracene units. Apparently, the long-range [π . . . π] distances of 3.5 Å between the anthracene units are superstructure-directing in anthracene⊂^2,6AnBox^4+ instead of the anthracene-pyridinium DA interactions. The formation of the anthracene⊂^2,6AnBox^4+ complex implies that [π . . . π] interactions between the anthracene units can be sufficient to overcome the Coulombic repulsion and form the homo[2]catenane, ^2,6AnHC.8PF6.
Preparation of ^2,6AnHC.8PF6 was achieved following two synthetic procedures which consisted of mixing ^2,6AnBox.4PF6 with its precursors ^2,6AnDB.2PF6, and ^2,6AnBPY in the absence (Protocol I) or presence (Protocol II) of tetrabutylammonium hexafluorophosphate (TBAPF6). See Scheme 6. Our attempts to prepare ^2,6AnHC.8PF6 following Protocol I produced very low yields (<5%) of the catenane.
In order to evaluate whether the addition of salt would enhance the synthesis of the rigid ^2,6AnHC.8PF6 homo[2]catenane, we investigated the effects of the addition of tetrabutylammonium hexafluorophosphate (TBAPF6) salt on the formation of the ^2,6AnDB^2+⊂^2,6AnBox^4+ inclusion complex. […] Remarkably, the change in color of the solution from yellow to red implies^38 an increase in the strength of the ^2,6AnDB^2+⊂^2,6AnBox^4+ host-guest complex. In order to estimate the magnitude of the association constant between ^2,6AnDB^2+ and ^2,6AnBox^4+, we prepared (FIG. 2A-2C, Scheme 8) an anthracene-based dicationic model DM^2+. […] Consequently, the efficiency of the catenane synthesis is also found to be sensitive to the addition of TBAPF6. At a salt concentration of 250 mM, the homo[2]catenane ^2,6AnHC.8PF6 was prepared by mixing ^2,6AnBox.4PF6, ^2,6AnDB.2PF6, and ^2,6AnBPY in a 1:2:2 molar ratio in MeCN resulting in an isolated yield of up to 40%. See Scheme 2. The ^1H NMR spectrum of ^2,6AnHC^8+ was recorded at room temperature in CD3CN. Only three signals are observed which can be assigned to the pyridinium, methylene, and phenylene protons. All other resonances associated with the anthracene units disappear or are broadened at room temperature. In the temperature dependent 41 NMR spectra (data not shown), the signals for the anthracene protons reappear at low temperature and have been assigned based on 2D ROESY NMR spectroscopic measurements. These experiments confirm the dynamic nature of the homo[2]catenane in which the two mechanically interlocked rings undergo relative co-conformational changes at room temperature. The catenane was also characterized by high-resolution mass spectrometry (HR-MS). A characteristic peak corresponding to [M-3 PF6]^3+ is present in the mass spectrum (data no shown) at m/z of 823.7819 which compares well with the calculated value for m/z of 823.7814.
All reagents were purchased from commercial suppliers (Aldrich or Fisher) and used without further purification. Anthracene derivatives, 9,10-bis(4-pyridyl)anthracene (^9.^10AnBPY) and 2,6-bis(4-pyridyl)anthracene (^2,6AnBPY) were synthesized following^1,2 reports in the literature. All reactions and manipulations were carried out under a dry N2 atmosphere using standard Schlenk. Thin-layer chromatography (TLC) was performed on silica gel 60 F254 TLC plates (Merck). Column chromatography was carried out using CombiFlash® Automation Systems (Teledyne ISCO) employing both normal phase (RediSep Rf Gold® Normal-Phase Silica) and reverse phase (RediSep Rf Gold® Reversed-phase C18). […]

[2] = Absorption and photoluminescence spectroscopy in solution; format: physicochemical; details: for absorption band (higher-energy band of the anthracene moiety) / absorption, vibronic peak of the anthracene moiety (lower-energy): high dilution; for emission band, vibronic peaks of the anthracene moiety: fluorescence spectroscopy, data not shown; for τ (emission lifetime): 405 nm excitation
Description: The close proximity of the anthracene units in the mechanically interlocked cyclophanes was expected to give rise to remarkable optical properties distinct from those of the free cyclophanes. We explored the absorption and fluorescence properties of all compounds at high dilution (4×10^−7 M) to avoid reabsorption processes^40 and aggregation effects.^17 All of the optical parameters are summarized in Tables 1 and 2. Initially, we explored the influence of the pyridine/pyridinium units on the optical properties of both ^2,6AnBox^4+ and ^9,10AnBox^4+ cyclophanes. The presence of two pyridinium units within the linker dramatically affect the optical properties of the anthracene moiety. Although ^2,6AnBPY (FIG. 5C) and ^9,10AnBPY display^41 characteristic vibronic peaks associated with the anthracene moiety at 290 and 400 nm, ^2,6AnDB^2+ and ^9,10AnDB^2+ display a shift of the band at 290 to 330 nm (FIG. 5A) and the emergence of a new featureless broad band at 450 nm associated with CT from the anthracene moiety to the pyridinium unit. It is noteworthy that phenylene-bridged bipyridyl linkers (ExBIPY) display^35 a single absorption peak at 325 nm in MeCN, while the anthracene moiety leads to the emergence of some push-pull D-A character.
All reagents were purchased from commercial suppliers (Aldrich or Fisher) and used without further purification. Anthracene derivatives, 9,10-bis(4-pyridyl)anthracene (^9.^10AnBPY) and 2,6-bis(4-pyridyl)anthracene (^2,6AnBPY) were synthesized following^1,2 reports in the literature. All reactions and manipulations were carried out under a dry N2 atmosphere using standard Schlenk. Thin-layer chromatography (TLC) was performed on silica gel 60 F254 TLC plates (Merck). Column chromatography was carried out using CombiFlash® Automation Systems (Teledyne ISCO) employing both normal phase (RediSep Rf Gold® Normal-Phase Silica) and reverse phase (RediSep Rf Gold® Reversed-phase C18). […] All the spectra were baseline-corrected with a MeCN blank sample. The photoluminescence spectra of all samples were obtained with a Fluorolog-3 spectrafluorometer (Horiba Jobin Yvon) in a 2-mm quartz cuvette with 3-nm slit width and a front-phase geometry. The time-correlated single photon counting setup is described elsewhere.^3 Nuclear magnetic resonance (NMR) spectra were recorded on a Bruker Avance III 500 and 600 MHz spectrometers, with working frequencies of 500 and 600 MHz (′H NMR) and 125 MHz (^13C NMR), respectively. Chemical shifts are reported in ppm relative to the signals corresponding to the residual non-deuterated solvents (CD3CN: δ1−1=1.94 ppm and δC=1.32 ppm). High-resolution mass spectra (HRMS) were measured on an Agilent 6210 Time of Flight (TOF) LC-MS, using an ESI source, coupled with Agilent 1100 HPLC stack, using direct infusion (0.6 mL min ^−1). The binding constants were determined using this link: website http://supramolecular.org.^4

[3] = tested on: MIA PACA2 cancer cells; assay: Cell growth / toxicity by phase contrast imaging over 48 hours; format: cell-based; details: any concentration tested
Description: Cells were cultured for 4 hours then treated with the compounds at a range of concentrations. Upon treatment, cells were placed in a BioTek LionheartFX system, where they were imaged every 20 minutes for 48 hours, under standard culture conditions (37° C., 5% CO2). Phase contrast images were processed and analyzed with BioTek Gen5 analysis software to identify cell number at the start and end of the culture time. There was no significant difference in percent growth either between the two compounds or between the different concentrations and the untreated (0 mM) control.
Cells were grown in standard DMEM (supplemented with 10% Fetal Bovine Serum and 1% Penicillin-Streptomycin, supplier=Corning). Cells were seeded into imaging coverglass chamber 40 hours prior to treatment. Compounds were resuspended in deionized H2O then diluted to the final concentration in media. Cells were treated with compounds for 6 hours prior to imaging.

[4] = reported in the literature; cited from earlier work

In the case of c1ccc(C[n+]2ccc(-c3ccc4cc5cc(-c6cc[n+](Cc7ccccc7)cc6)ccc5cc4c3)cc2)cc1 [DM^2+], the “binding constant Ka” value [1] is reported as 611 M⁻¹ and the “association constant Ka” value [1] is reported as 40 M⁻¹.

For c1ccc(C[n+]2ccc(-c3ccc4cc5cc(-c6ccncc6)ccc5cc4c3)cc2)cc1 [MM^+], the “binding constant Ka” value [1] was 540 M⁻¹ and the “association constant Ka” value [1] was 102 M⁻¹.

With c1cc(-c2ccc3cc4cc(-c5ccncc5)ccc4cc3c2)ccn1 [^2,6AnBPY, 2,6-bis(4-pyridyl)anthracene, reference compound] the “absorption band (higher-energy band of the anthracene moiety)” value ([2]; MeCN) was 290 nm, the “absorption, vibronic peak of the anthracene moiety (lower-energy)” value ([2]; MeCN) was 400 nm and the “emission band, vibronic peaks of the anthracene moiety” value [2] was 440 nm.

In the case of [Cl-].[Cl-].[Cl-].[Cl-].c1cc2ccc1C[n+]1ccc(cc1)-c1ccc3cc4cc(ccc4cc3c1)-c1cc[n+](cc1)Cc1ccc(cc1)C[n+]1ccc(cc1)-c1ccc3cc4cc(ccc4cc3c1)-c1cc[n+](cc1)C2 [^2,6AnBox⋅4Cl], the “toxicity to the cells” value [3] is reported as “Neither the catenane (^2,6AnHC.8Cl) nor the cyclophane (^2,6AnBox⋅4Cl) are toxic to the cells at any concentration tested”.

For BrCc1ccc(C[n+]2ccc(-c3ccc4cc5cc(-c6cc[n+](Cc7ccc(CBr)cc7)cc6)ccc5cc4c3)cc2)cc1 [^2,6AnDB^2+], the “association constant Ka” value [1] was 42 M⁻¹, the “Φ (PL quantum yield)” value ([2]; 4 × 10^−7 M, MeCN) was 7.0% and the λabs ([2]; 4 × 10^−7 M, MeCN) was 453 nm. For the same molecule, the λem ([2]; 4 × 10^−7 M, MeCN) was 542 nm, the “τ (emission lifetime)” value ([2]; 4 × 10^−7 M, MeCN) was 10 ns and the “charge transfer (CT) absorption band” value ([2]; MeCN) was 450 nm. The “absorption band (higher-energy band of the anthracene moiety)” value ([2]; MeCN) was 330 nm and the “concentration dependence of excimer/exciplex emission” value ([2]; from high concentration to high dilution (10^−8 M)) was “absence of excimer emission at high concentration”.

In the case of c1ccc2c(-c3ccncc3)c3ccccc3c(-c3ccncc3)c2c1 [^9,10AnBPY, 9,10-bis(4-pyridyl)anthracene, reference compound], the “absorption band (higher-energy band of the anthracene moiety)” value ([2]; MeCN) is reported as 290 nm, the “absorption, vibronic peak of the anthracene moiety (lower-energy)” value ([2]; MeCN) is reported as 400 nm and the “emission band, vibronic peaks of the anthracene moiety” value [2] is reported as 440 nm.

In the case of c1ccc2c3c4ccccc4c(c2c1)-c1cc[n+](cc1)Cc1ccc(cc1)C[n+]1ccc(cc1)-c1c2ccccc2c(c2ccccc12)-c1cc[n+](cc1)Cc1ccc(cc1)C[n+]1ccc-3cc1 [^9,10AnBox^4+], the “Φ (PL quantum yield)” value ([2]; 4 × 10^−7 M, MeCN) is reported as 1.3%, the λabs ([2]; 4 × 10^−7 M, MeCN) is reported as 415 nm and the λem ([2]; 4 × 10^−7 M, MeCN) is reported as 566 nm. The “τ (emission lifetime)” value ([2]; 4 × 10^−7 M, MeCN) was 8.7 ns, the “Stokes shifts (δ)” value ([2]; DMF, 4 × 10^−7 M) was 6793 cm⁻¹ and the λabs ([2]; DMF, 4 × 10^−7 M) was 402 nm. For the same molecule, the λem ([2]; DMF, 4 × 10^−7 M) was 576 nm, the λexc ([2]; DMF, 4 × 10^−7 M) was 414 nm and the “Stokes shifts (δ)” value ([2]; EtOH, 4 × 10^−7 M) was 6502 cm⁻¹. The λabs ([2]; EtOH, 4 × 10^−7 M) was 409 nm, the λem ([2]; EtOH, 4 × 10^−7 M) was 574 nm and the λexc ([2]; EtOH, 4 × 10^−7 M) was 418 nm. The “Stokes shifts (δ)” value ([2]; H2O, 4 × 10^−7 M) was 6199 cm⁻¹, the λabs ([2]; H2O, 4 × 10^−7 M) was 419 nm and the λem ([2]; H2O, 4 × 10^−7 M) was 566 nm. The λexc ([2]; H2O, 4 × 10^−7 M) was 419 nm, the “Stokes shifts (δ)” value ([2]; Me2SO, 4 × 10^−7 M) was 6966 cm⁻¹ and the λabs ([2]; Me2SO, 4 × 10^−7 M) was 403 nm. For the same molecule, the λem ([2]; Me2SO, 4 × 10^−7 M) was 570 nm, the λexc ([2]; Me2SO, 4 × 10^−7 M) was 408 nm and the “Stokes shifts (δ)” value ([2]; MeCN, 4 × 10^−7 M (Table 2)) was 6371 cm⁻¹. The λabs ([2]; MeCN, 4 × 10^−7 M (Table 2)) was 410 nm, the λem ([2]; MeCN, 4 × 10^−7 M (Table 2)) was 566 nm and the λexc ([2]; MeCN, 4 × 10^−7 M (Table 2)) was 416 nm. The “Stokes shifts (δ)” value ([2]; MeOH, 4 × 10^−7 M) was 6282 cm⁻¹, the λabs ([2]; MeOH, 4 × 10^−7 M) was 402 nm and the λem ([2]; MeOH, 4 × 10^−7 M) was 565 nm. The λexc ([2]; MeOH, 4 × 10^−7 M) was 417 nm.

With BrCc1ccc(C[n+]2ccc(-c3c4ccccc4c(-c4cc[n+](Cc5ccc(CBr)cc5)cc4)c4ccccc34)cc2)cc1 [^9,10AnDB^2+] the “charge transfer (CT) absorption band” value ([2]; MeCN) was 450 nm and the “absorption band (higher-energy band of the anthracene moiety)” value ([2]; MeCN) was 330 nm.

For c1ccc2cc3ccccc3cc2c1 [anthracene, reference compound], the “association constant Ka” value [1] is given as 125 M⁻¹ and the emission lifetime [4] is given as ~18 ns.
